# Test results reported in US20220339143A1, “TAK-925 FOR USE IN TREATING NARCOLEPSY” (Takeda Pharmaceutical Company Limited, priority 2019, published 2022).
# Where two headings read alike, the source gives them in different places.
# Assay: Single dose PK in healthy subjects (Cohorts 1, 2, S1 and S2), plasma
# Type: in vivo, human
# Settings: human, plasma, intravenous
# Procedure: This study investigates (i) the safety and tolerability of Compound A (methyl (2R,3S)-3-((methylsulfonyl)amino)-2-(((cis-4-phenylcyclohexyl)oxy)methyl)piperidine-1-carboxylate) when a single dose given as a 9 hour continuous IV infusion is administered to healthy adults, healthy elderly subjects and patients with narcolepsy type 1 (NT1); (ii) the pharmacokinetics of Compound A when a single dose given as a 9 hour continuous IV infusion is administered to healthy adults, healthy elderly subjects and patients with narcolepsy type 1; and (iii) the pharmacodynamics (PD) effects of Compound A, primarily by evaluation of the sleep latency on MWT when a single dose given as a 9 hour continuous IV infusion is administered to patients with narcolepsy type 1.
# Pharmacokinetics: Concentrations of Compound A in plasma, and CSF, and pharmacokinetics parameters.
# On average, the time to reach the plateau appeared to be approximately 3 to 4 hours after the start of infusion. […] After switching off the IV infusion, Compound A plasma concentrations declined rapidly and in a biphasic manner with a mean terminal disposition phase t1/2z ranging approximately from 3.4 to 5.1 hours across all doses. […] Table 5 provides a summary of plasma concentrations of Compound A after a single IV infusion in healthy subjects. Table 6 provides a summary of pharmacokinetic parameters of Compound A after a single IV infusion in healthy subjects.
# [1] = 112 mg, read-out: Plasma concentration, Median
# [2] = 112 mg, read-out: Plasma concentration, Minimum
# [3] = 112 mg, read-out: Plasma concentration, Q1
# [4] = 112 mg, read-out: Plasma concentration, Q3
# [5] = 112 mg, read-out: Plasma concentration, Maximum
# [6] = 112 mg, read-out: Plasma concentration, Mean
# [7] = 134.4 mg, read-out: Plasma concentration, Maximum
# [8] = 134.4 mg, read-out: Plasma concentration, Mean
# [9] = 134.4 mg, read-out: Plasma concentration, Median
# [10] = 134.4 mg, read-out: Plasma concentration, Minimum
# [11] = 134.4 mg, read-out: Plasma concentration, Q1
# [12] = 134.4 mg, read-out: Plasma concentration, Q3
smiles,measurement,setting,value
"COC(=O)N1CCC[C@H](NS(C)(=O)=O)[C@@H]1CO[C@H]1CC[C@@H](c2ccccc2)CC1 [Compound A, methyl (2R,3S)-3-((methylsulfonyl)amino)-2-(((cis-4-phenylcyclohexyl)oxy)methyl)piperidine-1-carboxylate]",concentration at 1.5 h,[1],197 ng/mL
same,concentration at 1.5 h,[2],141 ng/mL
same,concentration at 1.5 h,[3],164 ng/mL
same,concentration at 1.5 h,[4],213 ng/mL
same,concentration at 2 h,[5],223 ng/mL
same,concentration at 2 h,[6],200 ng/mL
same,concentration at 2 h,[1],207 ng/mL
same,concentration at 2 h,[2],150 ng/mL
same,concentration at 2 h,[3],195 ng/mL
same,concentration at 2 h,[4],220 ng/mL
same,concentration at 3 h,[5],276 ng/mL
same,concentration at 3 h,[6],222 ng/mL
same,concentration at 3 h,[1],216 ng/mL
same,concentration at 3 h,[2],171 ng/mL
same,concentration at 3 h,[3],209 ng/mL
same,concentration at 3 h,[4],248 ng/mL
same,concentration at 4 h,[5],290 ng/mL
same,concentration at 4 h,[6],224 ng/mL
same,concentration at 4 h,[1],216 ng/mL
same,concentration at 4 h,[2],154 ng/mL
same,concentration at 4 h,[3],215 ng/mL
same,concentration at 4 h,[4],252 ng/mL
same,concentration at 6 h,[5],206 ng/mL
same,concentration at 6 h,[6],189 ng/mL
same,concentration at 6 h,[1],192 ng/mL
same,concentration at 6 h,[2],154 ng/mL
same,concentration at 6 h,[3],186 ng/mL
same,concentration at 6 h,[4],205 ng/mL
same,concentration at 8 h,[5],221 ng/mL
same,concentration at 8 h,[6],194 ng/mL
same,concentration at 8 h,[1],195 ng/mL
same,concentration at 8 h,[2],162 ng/mL
same,concentration at 8 h,[3],176 ng/mL
same,concentration at 8 h,[4],216 ng/mL
same,concentration at 9 h,[5],247 ng/mL
same,concentration at 9 h,[6],216 ng/mL
same,concentration at 9 h,[1],221 ng/mL
same,concentration at 9 h,[2],169 ng/mL
same,concentration at 9 h,[3],192 ng/mL
same,concentration at 9 h,[4],245 ng/mL
same,concentration at 0.5 h,[7],201 ng/mL
same,concentration at 0.5 h,[8],162 ng/mL
same,concentration at 0.5 h,[9],152 ng/mL
same,concentration at 0.5 h,[10],147 ng/mL
same,concentration at 0.5 h,[11],148 ng/mL
same,concentration at 0.5 h,[12],169 ng/mL
same,concentration at 1 h,[7],273 ng/mL
same,concentration at 1 h,[8],204 ng/mL
same,concentration at 1 h,[9],187 ng/mL
same,concentration at 1 h,[10],181 ng/mL
same,concentration at 1 h,[11],181 ng/mL
same,concentration at 1 h,[12],216 ng/mL
same,concentration at 1.5 h,[7],289 ng/mL
same,concentration at 1.5 h,[8],228 ng/mL
same,concentration at 1.5 h,[9],221 ng/mL
same,concentration at 1.5 h,[10],191 ng/mL
same,concentration at 1.5 h,[11],197 ng/mL
same,concentration at 1.5 h,[12],250 ng/mL
same,concentration at 2 h,[7],335 ng/mL
same,concentration at 2 h,[8],248 ng/mL
same,concentration at 2 h,[9],244 ng/mL
same,concentration at 2 h,[10],192 ng/mL
same,concentration at 2 h,[11],199 ng/mL
same,concentration at 2 h,[12],276 ng/mL
same,concentration at 3 h,[7],388 ng/mL
same,concentration at 3 h,[8],288 ng/mL
same,concentration at 3 h,[9],278 ng/mL
same,concentration at 3 h,[10],217 ng/mL
same,concentration at 3 h,[11],260 ng/mL
same,concentration at 3 h,[12],305 ng/mL
same,concentration at 4 h,[7],355 ng/mL
same,concentration at 4 h,[8],294 ng/mL
same,concentration at 4 h,[9],308 ng/mL
same,concentration at 4 h,[10],214 ng/mL
same,concentration at 4 h,[11],256 ng/mL
same,concentration at 4 h,[12],324 ng/mL
same,concentration at 6 h,[7],302 ng/mL
same,concentration at 6 h,[8],248 ng/mL
same,concentration at 6 h,[9],260 ng/mL
same,concentration at 6 h,[10],164 ng/mL
same,concentration at 6 h,[11],206 ng/mL
same,concentration at 6 h,[12],295 ng/mL
same,concentration at 8 h,[7],313 ng/mL
same,concentration at 8 h,[8],262 ng/mL
same,concentration at 8 h,[9],262 ng/mL
same,concentration at 8 h,[10],199 ng/mL
same,concentration at 8 h,[11],242 ng/mL
same,concentration at 8 h,[12],291 ng/mL
same,concentration at 9 h,[7],330 ng/mL
same,concentration at 9 h,[8],292 ng/mL
same,concentration at 9 h,[9],300 ng/mL
same,concentration at 9 h,[10],241 ng/mL
same,concentration at 9 h,[11],268 ng/mL
same,concentration at 9 h,[12],311 ng/mL
same,concentration at 0.5 h,"180 mg, read-out: Plasma concentration, Maximum",224 ng/mL
same,concentration at 0.5 h,"180 mg, read-out: Plasma concentration, Mean",180 ng/mL
same,concentration at 0.5 hr,"180 mg, read-out: Plasma concentration, Median",170 ng/mL
same,concentration at 0.5 hr,"180 mg, read-out: Plasma concentration, Minimum",161 ng/mL
same,concentration at 0.5 hr,"180 mg, read-out: Plasma concentration, Q1",163 ng/mL
same,concentration at 0.5 hr,"180 mg, read-out: Plasma concentration, Q3",194 ng/mL
